Source: DBAASP
Converted amounts (≈) assume the structure as drawn. Each block holds one compound with its values, some of them ahead of it.

Experiments:
Test in all cases: ≥ marks a high value that may be exact or a test limit, other limits are often not marked, values filed in µg/mL are converted to µM
[1] = system: Staphylococcus aureus KCTC 1621
[2] = system: Bacillus subtilis KCTC 3068
[3] = system: Staphylococcus aureus CCARM 3089
[4] = system: Escherichia coli KCTC 2593
[5] = system: Pseudomonas aeruginosa CCARM 2003
[6] = system: Staphylococcus epidermidis KCTC 1917
[7] = system: Acinetobacter baumannii CCARM 12035
[8] = system: Pseudomonas aeruginosa KCTC 1637
[9] = system: Salmonella typhimurium CCARM 8007
[10] = system: Escherichia coli KCTC 2571
[11] = system: Staphylococcus aureus KCTC 3881
[12] = system: Acinetobacter baumannii CCARM 12036
[13] = system: Pseudomonas aeruginosa KCTC 2004
[14] = system: Salmonella typhimurium KCTC 1926
[15] = system: Salmonella typhimurium CCARM 8009
[16] = system: Escherichia coli CCARM 1238
[17] = system: Staphylococcus aureus CCARM 3126
[18] = system: Staphylococcus aureus CCARM 3108
[19] = system: Escherichia coli CCARM 1229
[20] = system: Bacillus subtilis KCTC 1021
[21] = system: Bacillus subtilis KCTC 1022
[22] = system: Salmonella typhimurium CCARM 8003
[23] = system: Acinetobacter baumannii CCARM 12037
[24] = system: Pseudomonas aeruginosa KCTC 2513
[25] = system: Pseudomonas aeruginosa CCARM 2095
[26] = system: Staphylococcus aureus CCARM 3114
[27] = system: Staphylococcus aureus CCARM 3090
[28] = system: Acinetobacter baumannii CCARM 12005
[29] = system: Pseudomonas aeruginosa CCARM 2163
[30] = system: Staphylococcus aureus KCTC 1916
[31] = system: Pseudomonas aeruginosa CCARM 2002
[32] = system: Escherichia coli KCTC 1682
Bacillus subtilis PS832 = system: Bacillus subtilis PS832
[33] = system: Klebsiella aerogenes ATCC 13048
[34] = system: Staphylococcus epidermidis ATCC 12228
Escherichia coli DL7 = system: Escherichia coli DL7
[35] = system: Candida albicans FRR 5580
[36] = system: Pseudomonas aeruginosa ATCC 9027
[37] = system: Xanthomonas axonopodis pv. glycines ISBF 327
[38] = system: Pseudomonas aeruginosa ATCC 27853
[39] = system: Staphylococcus aureus ATCC 29313
[40] = system: Escherichia coli ATCC 25922
[41] = system: Streptococcus pneumoniae BCRC 10794
[42] = system: Staphylococcus aureus BCRC 10780

MIC [1]: 1 µM (≈ 2.5 µg/mL)
MIC [2]: 4 µM (≈ 9.98 µg/mL)
MIC [3]: 8 µM (≈ 20 µg/mL)
MIC [4]: 2 µM (≈ 4.99 µg/mL)
MIC [5]: 2 µM (≈ 4.99 µg/mL)
MIC [6]: 2 µM (≈ 4.99 µg/mL)
MIC [7]: 2 µM (≈ 4.99 µg/mL)
MIC [8]: 4 µM (≈ 9.98 µg/mL)
MIC [9]: 8 µM (≈ 20 µg/mL)
MIC [10]: 2 µM (≈ 4.99 µg/mL)
MIC [11]: 2 µM (≈ 4.99 µg/mL)
MIC [12]: 2 µM (≈ 4.99 µg/mL)
MIC [13]: 4 µM (≈ 9.98 µg/mL)
MIC [14]: 8 µM (≈ 20 µg/mL)
MIC [15]: 8 µM (≈ 20 µg/mL)
MIC [16]: 8 µM (≈ 20 µg/mL)
MIC [17]: 8 µM (≈ 20 µg/mL)
MIC [18]: 8 µM (≈ 20 µg/mL)
MIC [19]: 8 µM (≈ 20 µg/mL)
MIC [20]: 4 µM (≈ 9.98 µg/mL)
MIC [21]: 1 µM (≈ 2.5 µg/mL)
MIC [22]: 8 µM (≈ 20 µg/mL)
MIC [23]: 2 µM (≈ 4.99 µg/mL)
MIC [24]: 8 µM (≈ 20 µg/mL)
MIC [25]: 2 µM (≈ 4.99 µg/mL)
MIC [26]: 8 µM (≈ 20 µg/mL)
MIC [27]: 8 µM (≈ 20 µg/mL)
MIC [28]: 2 µM (≈ 4.99 µg/mL)
MIC [29]: 2 µM (≈ 4.99 µg/mL)
MIC [30]: 1 µM (≈ 2.5 µg/mL)
MIC [31]: 2 µM (≈ 4.99 µg/mL)
MIC [32]: 2 µM (≈ 4.99 µg/mL)
SMILES: CC[C@H](C)[C@H](NC(=O)CNC(=O)[C@H](CCCN=C(N)N)NC(=O)[C@H](Cc1ccccc1)NC(=O)[C@@H](NC(=O)[C@H](Cc1cnc[nH]1)NC(=O)[C@H](Cc1cnc[nH]1)NC(=O)[C@H](Cc1ccccc1)NC(=O)[C@H](C)N)[C@@H](C)CC)C(=O)N[C@H](C(=O)N[C@@H](Cc1cnc[nH]1)C(=O)N[C@H](C(=O)NCC(=O)N[C@@H](CCCCN)C(=O)N[C@H](C(=O)N[C@H](C(=O)N[C@@H](Cc1cnc[nH]1)C(=O)N[C@@H](CCCN=C(N)N)C(=O)N[C@@H](CC(C)C)C(=O)N[C@H](C(=O)N[C@H](C(=O)NCC(=O)O)[C@@H](C)O)C(C)C)[C@@H](C)CC)[C@@H](C)O)C(C)C)C(C)C [AFHHIFRGIVHVGKTIHRLVTG]

MIC (Bacillus subtilis PS832): 2 µM (≈ 2.95 µg/mL)
MIC [33]: ≥ 32 µM
MIC [34]: 16 µM (≈ 23.6 µg/mL)
MIC (Escherichia coli DL7): 8 µM (≈ 11.8 µg/mL)
SMILES: CC[C@H](C)[C@H](NC(=O)[C@H](CCCN=C(N)N)NC(=O)[C@H](CCCCN)NC(=O)[C@H](CC(C)C)NC(=O)[C@H](CC(C)C)NC(=O)CNC(=O)[C@H](Cc1cnc[nH]1)NC(=O)[C@H](C)NC(=O)[C@@H](N)CC(=O)O)C(=O)N[C@@H](CCCCN)C(=O)N[C@H](C(=O)N[C@@H](CC(C)C)C(=O)N[C@@H](CC(C)C)C(N)=O)[C@@H](C)O [DAHGLLKRIKTLL]

MIC [35]: ≥ 134 µM
MIC [36]: 67.1 µM (≈ 125 µg/mL)
SMILES: CC(C)[C@H](NC(=O)[C@@H]1CCCN1C(=O)[C@@H](N)Cc1ccccc1)C(=O)N[C@H](C(=O)N[C@@H](Cc1c[nH]c2ccccc12)C(=O)N[C@@H](CCCN=C(N)N)C(=O)N[C@@H](Cc1c[nH]c2ccccc12)C(=O)N[C@@H](Cc1c[nH]c2ccccc12)C(=O)N[C@@H](CCCCN)C(=O)N[C@@H](Cc1c[nH]c2ccccc12)C(=O)N[C@@H](Cc1c[nH]c2ccccc12)C(=O)N[C@@H](CCCCN)C(=O)NCC(=O)O)[C@@H](C)O [FPVTWRWWKWWKG]

MIC [37]: 2 µM (≈ 4.83 µg/mL)
MIC [38]: 77 µM (≈ 186 µg/mL)
MIC [40]: 19 µM (≈ 45.9 µg/mL)
SMILES: CC[C@H](C)[C@H](NC(=O)CN)C(=O)NCC(=O)N[C@@H](CC(=O)O)C(=O)N[C@H](C(=O)N[C@@H](CC(C)C)C(=O)N[C@@H](CCCCN)C(=O)N[C@@H](CC(N)=O)C(=O)N[C@@H](CC(C)C)C(=O)N[C@@H](C)C(=O)N[C@@H](CCCCN)C(=O)N[C@@H](C)C(=O)N[C@@H](C)C(=O)NCC(=O)N[C@@H](CCCCN)C(=O)N[C@@H](C)C(=O)N[C@@H](C)C(=O)N[C@@H](CC(C)C)C(=O)N[C@@H](Cc1cnc[nH]1)C(=O)N[C@@H](C)C(=O)N[C@H](C(=O)NCC(=O)N[C@@H](CCC(=O)O)C(=O)N[C@@H](CO)C(=O)N[C@@H](CC(C)C)C(N)=O)C(C)C)[C@@H](C)CC [GIGDILKNLAKAAGKAALHAVGESL]
MIC [39]: 19 µM (≈ 45.9 µg/mL)

MIC [41]: ≥ 147 µM
MIC [42]: ≥ 147 µM
SMILES: CC[C@H](C)[C@H](NC(=O)[C@H](Cc1cnc[nH]1)NC(C)=O)C(=O)N[C@H](C(=O)N[C@@H](CCCCN)C(=O)NCC(=O)N[C@@H](CC(C)C)C(N)=O)[C@@H](C)CC [HIIKGL]
